Results from US20210138025A1, “CATIONIC PEPTIDES WITH IMMUNOMODULATORY AND/OR ANTI-BIOFILM ACTIVITIES” (priority 2018, published 2021).
Non-standard residues stand in square brackets, D forms with d. No end group written: not given here.

Key:
[1] = tested on: S. aureus (methicillin resistant clinical isolate C623); experiment: Biofilm inhibition, static microtitre plate assay, crystal violet (Table 17; FIG. 19); details: 10% tryptic soy broth with 0.1% glucose
[2] = tested on: Salmonella typhimurium (ATCC 14028); experiment: Biofilm inhibition, static microtitre plate assay, crystal violet (Table 17); details: BM2 minimal media
[3] = tested on: P. aeruginosa (PAO1); experiment: Biofilm inhibition, static microtitre plate assay, crystal violet (Table 17; FIG. 19); details: BM2 minimal media
[4] = tested on: E. coli O157:H7; experiment: Biofilm inhibition, static microtitre plate assay, crystal violet (Table 17); details: BM2 minimal media

Sequence	peptide concentration that inhibited more than 90% of adhered biofilm biomass, S. aureus (C623) [1] [µM]	peptide concentration that inhibited more than 90% of adhered biofilm biomass, S. typhimurium (ATCC 14028) [2] [µM]	peptide concentration that inhibited more than 90% of adhered biofilm biomass, P. aeruginosa (PAO1) [3] [µM]	peptide concentration that inhibited more than 90% of adhered biofilm biomass, E. coli (O157:H7) [4] [µM]
IWLRLKVVLKRK (not fully specified; also: D-amino acid(s), positions not given here) [Peptide D-3006]	4	2	2	2
KRKLVVKLRLWI ([dK][dR][dK][dL][dV][dV][dK][dL][dR][dL][dW][dI]) [RI-3006]	8	4	4	4
KVVWIKVKIKLV ([dK][dV][dV][dW][dI][dK][dV][dK][dI][dK][dL][dV]) [RI-3007]	16	16	32	16
VLKIKVKIWVVK (not fully specified; also: D-amino acid(s), positions not given here) [Peptide D-3007]	8	4	8	4
RRWIRVAVILRV ([dR][dR][dW][dI][dR][dV][dA][dV][dI][dL][dR][dV]) [RI-1018, reference compound]	8	2	4	1
